Results: ChEMBL document CHEMBL3045974, “Global antifungal profile optimization of chlorophenyl derivatives against Botrytis cinerea and Colletotrichum gloeosporioides” (2009)

Columns and labels:
Assay type in all cases: functional
[1] = tested on: Colletotrichum gloeosporioides; experiment: Antifungal activity against Colletotrichum gloeosporioides 20122-CECT assessed as inhibition of radial growth at 150 ug/mL at 25 degC measured after 5 days; conditions: 120 h, read-out: GI
[2] = tested on: Colletotrichum gloeosporioides; experiment: Antifungal activity against Colletotrichum gloeosporioides 20122-CECT assessed as inhibition of radial growth at 100 ug/mL at 25 degC measured after 5 days; conditions: 120 h, read-out: GI
Botrytis cinerea [3] = experiment: Antifungal activity against Botryotinia fuckeliana 2100 assessed as inhibition of radial growth at 50 ug/mL at 25 degC measured after 5 days; conditions: Botrytis cinerea, 2100, 120 h; read-out: GI
[4] = tested on: Colletotrichum gloeosporioides; experiment: Antifungal activity against Colletotrichum gloeosporioides 20122-CECT assessed as inhibition of radial growth at 50 ug/mL at 25 degC measured after 5 days; conditions: 120 h, read-out: GI
Botrytis cinerea [5] = experiment: Antifungal activity against Botryotinia fuckeliana 2100 assessed as inhibition of radial growth at 100 ug/mL at 25 degC measured after 5 days; conditions: Botrytis cinerea, 2100, 120 h; read-out: GI
Botrytis cinerea [6] = experiment: Antifungal activity against Botryotinia fuckeliana 2100 assessed as inhibition of radial growth at 150 ug/mL at 25 degC measured after 5 days; conditions: Botrytis cinerea, 2100, 120 h; read-out: GI
Botrytis cinerea [7] = experiment: Antifungal activity against Botryotinia fuckeliana 2100 assessed as inhibition of radial growth at 150 ug/mL at 25 degC measured after 4 days; conditions: Botrytis cinerea, 2100, 96 h; read-out: GI

`CC[C@@H](O)c1ccc(Cl)cc1` was tested. Which inhibition of growth at 150 µg/mL [1] did it give?
The inhibition of growth at 150 µg/mL was 59%.

What about the inhibition of growth at 100 µg/mL [2] of the same molecule?
The inhibition of growth at 100 µg/mL was 39%.

What about the inhibition of growth at 50 µg/mL (Botrytis cinerea [3]) of the same molecule?
The inhibition of growth at 50 µg/mL was 74%.

And the inhibition of growth at 50 µg/mL [4]?
Its inhibition of growth at 50 µg/mL is 28%.

And the inhibition of growth at 100 µg/mL (Botrytis cinerea [5])?
Its inhibition of growth at 100 µg/mL is 82%.

And the inhibition of growth at 150 µg/mL (Botrytis cinerea [6])?
Its inhibition of growth at 150 µg/mL is 98%.

Which results are given for `CCC(=O)c1ccc(Cl)cc1`?
inhibition of growth at 150 µg/mL [1]: 36%; inhibition of growth at 100 µg/mL [2]: 29%; inhibition of growth at 50 µg/mL (Botrytis cinerea [3]): 28%; inhibition of growth at 50 µg/mL [4]: 28%; inhibition of growth at 100 µg/mL (Botrytis cinerea [5]): 51%; inhibition of growth at 150 µg/mL (Botrytis cinerea [6]): 91%

Which inhibition of growth at 150 µg/mL [1] does the source give for `O[C@@H](c1ccccc1)[C@@H](O)c1ccc(Cl)cc1` here?
Its inhibition of growth at 150 µg/mL is 62%.

And the inhibition of growth at 100 µg/mL [2]?
Its inhibition of growth at 100 µg/mL is 52%.

What about the inhibition of growth at 50 µg/mL (Botrytis cinerea [3]) of the same molecule?
Its inhibition of growth at 50 µg/mL is 33%.

And the inhibition of growth at 50 µg/mL [4]?
Its inhibition of growth at 50 µg/mL is 27%.

And the inhibition of growth at 100 µg/mL (Botrytis cinerea [5])?
Its inhibition of growth at 100 µg/mL is 63%.

And the inhibition of growth at 150 µg/mL (Botrytis cinerea [6])?
The inhibition of growth at 150 µg/mL was 68%.

For `O[C@@H](c1ccc(Cl)cc1)C1CC1`, which inhibition of growth at 150 µg/mL [1] is on record?
The inhibition of growth at 150 µg/mL was 52%.

And the inhibition of growth at 100 µg/mL [2]?
Its inhibition of growth at 100 µg/mL is 40%.

What about the inhibition of growth at 50 µg/mL (Botrytis cinerea [3]) of the same molecule?
Its inhibition of growth at 50 µg/mL is 77%.

And the inhibition of growth at 50 µg/mL [4]?
The inhibition of growth at 50 µg/mL was 25%.

And the inhibition of growth at 100 µg/mL (Botrytis cinerea [5])?
Its inhibition of growth at 100 µg/mL is 100%.

What about the inhibition of growth at 150 µg/mL (Botrytis cinerea [6]) of the same molecule?
Its inhibition of growth at 150 µg/mL is 100%.

With `Clc1ccc(/C=C/c2ccccc2)cc1` as the molecule, how does the inhibition of growth at 150 µg/mL [1] read?
The inhibition of growth at 150 µg/mL was 0%.

What about the inhibition of growth at 100 µg/mL [2] of the same molecule?
The inhibition of growth at 100 µg/mL was 0%.

And the inhibition of growth at 150 µg/mL (Botrytis cinerea [7])?
Its inhibition of growth at 150 µg/mL is 19%.

And the inhibition of growth at 50 µg/mL [4]?
Its inhibition of growth at 50 µg/mL is 0%.

For `CCC(=O)c1cccc(Cl)c1`, which inhibition of growth at 150 µg/mL [1] is on record?
The inhibition of growth at 150 µg/mL was 42%.

And the inhibition of growth at 100 µg/mL [2]?
The inhibition of growth at 100 µg/mL was 28%.

And the inhibition of growth at 50 µg/mL (Botrytis cinerea [3])?
Its inhibition of growth at 50 µg/mL is 26%.

What about the inhibition of growth at 50 µg/mL [4] of the same molecule?
The inhibition of growth at 50 µg/mL was 22%.

What about the inhibition of growth at 100 µg/mL (Botrytis cinerea [5]) of the same molecule?
The inhibition of growth at 100 µg/mL was 49%.

What about the inhibition of growth at 150 µg/mL (Botrytis cinerea [6]) of the same molecule?
Its inhibition of growth at 150 µg/mL is 91%.

Which results are given for `CCC(O)c1ccc(Cl)cc1` (racemic)?
inhibition of growth at 150 µg/mL [1]: 51%; inhibition of growth at 100 µg/mL [2]: 41%; inhibition of growth at 50 µg/mL (Botrytis cinerea [3]): 61%; inhibition of growth at 50 µg/mL [4]: 28%; inhibition of growth at 100 µg/mL (Botrytis cinerea [5]): 77%; inhibition of growth at 150 µg/mL (Botrytis cinerea [6]): 95%

Which results are given for `CC[C@@H](O)c1cccc(Cl)c1`?
inhibition of growth at 150 µg/mL [1]: 65%; inhibition of growth at 100 µg/mL [2]: 60%; inhibition of growth at 50 µg/mL (Botrytis cinerea [3]): 72%; inhibition of growth at 50 µg/mL [4]: 34%; inhibition of growth at 100 µg/mL (Botrytis cinerea [5]): 80%; inhibition of growth at 150 µg/mL (Botrytis cinerea [6]): 86%

Which inhibition of growth at 150 µg/mL [1] does the source give for `O[C@@H](c1ccccc1)c1ccc(Cl)cc1` here?
The inhibition of growth at 150 µg/mL was 96%.

What about the inhibition of growth at 100 µg/mL [2] of the same molecule?
Its inhibition of growth at 100 µg/mL is 85%.

What about the inhibition of growth at 50 µg/mL (Botrytis cinerea [3]) of the same molecule?
The inhibition of growth at 50 µg/mL was 91%.

What about the inhibition of growth at 50 µg/mL [4] of the same molecule?
The inhibition of growth at 50 µg/mL was 66%.

And the inhibition of growth at 100 µg/mL (Botrytis cinerea [5])?
Its inhibition of growth at 100 µg/mL is 100%.

And the inhibition of growth at 150 µg/mL (Botrytis cinerea [6])?
The inhibition of growth at 150 µg/mL was 100%.

What does the source list for `CCC(O)c1cccc(Cl)c1` (racemic)?
inhibition of growth at 150 µg/mL [1]: 62%; inhibition of growth at 100 µg/mL [2]: 60%; inhibition of growth at 50 µg/mL (Botrytis cinerea [3]): 67%; inhibition of growth at 50 µg/mL [4]: 31%; inhibition of growth at 100 µg/mL (Botrytis cinerea [5]): 77%; inhibition of growth at 150 µg/mL (Botrytis cinerea [6]): 83%

`O=C(c1ccc(Cl)cc1)C1CC1` [(4-CHLOROPHENYL)(CYCLOPROPYL)METHANONE] was tested. Which inhibition of growth at 150 µg/mL [1] did it give?
The inhibition of growth at 150 µg/mL was 86%.

What about the inhibition of growth at 100 µg/mL [2] of the same molecule?
The inhibition of growth at 100 µg/mL was 63%.

What about the inhibition of growth at 50 µg/mL (Botrytis cinerea [3]) of the same molecule?
Its inhibition of growth at 50 µg/mL is 88%.

And the inhibition of growth at 50 µg/mL [4]?
Its inhibition of growth at 50 µg/mL is 21%.

What about the inhibition of growth at 100 µg/mL (Botrytis cinerea [5]) of the same molecule?
Its inhibition of growth at 100 µg/mL is 99%.

And the inhibition of growth at 150 µg/mL (Botrytis cinerea [6])?
The inhibition of growth at 150 µg/mL was 100%.
